Data on one sequence can be found in PMC8931250, “A SURF4-to-proteoglycan relay mechanism that mediates the sorting and secretion of a tagged variant of sonic hedgehog” (Proceedings of the National Academy of Sciences of the …, 2022).

Ends that are not written are not given here.

This assay addresses T1, GST-SURF4^49-60 (Homo sapiens, UniProt O15260).
T1 construct: SURF4 (49-60) in the same buffer was in the calorimetric cell; made in house; host or cells: Escherichia coli
Briefly: Isothermal titration calorimetry, CW peptide vs GST-SURF4(49-60). Conditions: ITC (PEAQ-ITC); 500 µM CW peptide into 50 µM GST-SURF4 (49-60); 10 mM PBS, 0.5 mM HEPES, 6.3 mM sorbitol, 1.75 mM KOAc, 25 µM Mg(OAc)2, 25 µM BSA, 0.003% Triton, pH 7.2; one set of site model; read-out: Kd of CW peptides for GST-SURF4^49-60. The class given is binding. An excerpt:
To measure a direct interaction, we immobilized the first luminal loop of SURF4 (SEQRDYIDTTWNC, referred to as SURF4 luminal peptides) on beads and then performed pull down analysis using purified GST and Shh^25-49-GST as prey (Fig. 3H). […] As an additional test, we performed pull down analysis using peptides corresponding to the CW motif (KRRHPKKC, referred to as CW peptides) as bait and purified GST-SURF4^49-60 as prey (Fig. 3J). […] We then immobilized peptides corresponding to the first intracellular loop of Frizzled6 (VRRFRYPERPC, referred to as RRFR) ([27]) on beads.
The samples were centrifuged at 55,000 rpm in a TLS55 rotor in a Beckman ultracentrifuge for 2 hr at 4 °C.
After centrifugation, fractions were collected from the top to the bottom of the tube, and the top fraction was analyzed by SDS-PAGE and immunoblotting.
Isothermal titration calorimetry (ITC)
We utilized a commercial isothermal titration calorimeter (PEAQ-ITC system, MicroCal, Malvern Panalytical, United Kingdom) to perform titration experiments. In these experiments, a 500 µM solution of CW peptide in a diluted binding buffer (10 mM PBS, 0.5 mM HEPES, 6.3 mM sorbitol, 1.75 mM KOAc, 25 µM Mg(OAc)2 , 25 µM BSA, 0.003% Triton, pH 7.2) was loaded into the syringe of the ITC instrument and a 50 µM solution of GST -SURF4 (49-60) in the same buffer was in the calorimetric cell. […]

Consider KRRHPKKC [CW peptides], for which the Kd was determined as 2350 ± 90 nM.
